Biological target: PRMT5-MEP50 enzyme complex (Homo sapiens (Human), UniProt O14744)
Test: PRMT5 enzyme activity in vitro assay (methylation of histone H4R3, ELISA absorbance at 450 nm)
Type: biochemical
Conditions: SAM, histone H4 peptide, room temperature 2 hours, 8 points from 10 μM to 0.128 nM
Description: Method for Measuring Enzyme Activity
In vitro assay: PRMT5-MEP50 enzyme complex, cofactor S-adenosylmethionine (SAM) and histone H4 peptide were reacted in vitro, and methylation of arginine (H4R3)—which is the third amino acid of histone H4—was measured in order to measure the enzyme activity of PRMT5.
Reagents: PRMT5-MEP50 enzyme complex (Catalog No. 51045), blocking buffer (52100-B), histone methyltransferase reaction buffer 2 (4×HMT assay buffer 2, Catalog No. 52170), and primary antibody (primary antibody 4-3, Catalog No. 52150) were purchased from BPS Bioscience (USA). The histone H4 peptide (1-20 amino acids) was custom made by Komabiotech (Korea) and used. S-adenosylmethionine was purchased from NEB (New England Biolabs, USA, Catalog No. B9003S). Plates for coating histone H4 peptide, washing buffer and color development reagent were purchased from the following vendors: Plate (Immobilizer™-Amino Plate, NUNC, Denmark, Catalog No. 436023), carbonate-bicarbonate buffer (Sigma-Aldrich, USA, Catalog No. C3041), washing buffer (10×TBST, Biosesang, Korea, Catalog No. T2005), TMB ELISA substrate (Abcam, UK, Catalog No. ab210902), horseradish peroxidase (HRP)-conjugated antibody (Abcam, UK, Catalog No. ab6721).
Experimental procedure: The histone H4 peptide was diluted with carbonate-bicarbonate buffer and prepared to 100 μg/mL, and then dispensed onto the plate per 100 μL and reacted at 37° C. for 1 hour. PRMT5-MEP50 enzyme complex and S-adenosylmethionine were diluted with histone methyltransferase reaction buffer to prepare 5 μg/mL and 2 μM, respectively, and then 20 μL of PRMT5-MEP50 enzyme complex and 25 μL of S-adenosylmethionine were dispensed onto the plate prepared above. 5 μL of the compound diluted with 10% dimethyl sulfoxide solution was added thereto and reacted at room temperature for 2 hours (final volume=50 μL). The concentration of the compound was diluted 1:5 from 10 μM until the lowest concentration of 0.128 nM, and 8 points were used for the test. After preparing the primary antibody by diluting 1:2000 with blocking buffer, 100 μL was added to the plate and reacted at room temperature for 1 hour. After preparing horseradish peroxidase-conjugated antibody by diluting 1:10,000 with blocking buffer, 100 μL was added to the plate and reacted at room temperature for 1 hour. 100 μL of TMB substrate was added and reacted for 3 minutes at room temperature, and 100 μL of 1 N sulfuric acid was then added to terminate the reaction. Then, the absorbance at 450 nm was measured to calculate the IC50 value of the compound. (+++: 1 to 100 nM, ++: greater than 100 to 1,000 nM, +: greater than 1,000 to 10,000 nM)

Sequence of PRMT5-MEP50 enzyme complex (O14744 2-637): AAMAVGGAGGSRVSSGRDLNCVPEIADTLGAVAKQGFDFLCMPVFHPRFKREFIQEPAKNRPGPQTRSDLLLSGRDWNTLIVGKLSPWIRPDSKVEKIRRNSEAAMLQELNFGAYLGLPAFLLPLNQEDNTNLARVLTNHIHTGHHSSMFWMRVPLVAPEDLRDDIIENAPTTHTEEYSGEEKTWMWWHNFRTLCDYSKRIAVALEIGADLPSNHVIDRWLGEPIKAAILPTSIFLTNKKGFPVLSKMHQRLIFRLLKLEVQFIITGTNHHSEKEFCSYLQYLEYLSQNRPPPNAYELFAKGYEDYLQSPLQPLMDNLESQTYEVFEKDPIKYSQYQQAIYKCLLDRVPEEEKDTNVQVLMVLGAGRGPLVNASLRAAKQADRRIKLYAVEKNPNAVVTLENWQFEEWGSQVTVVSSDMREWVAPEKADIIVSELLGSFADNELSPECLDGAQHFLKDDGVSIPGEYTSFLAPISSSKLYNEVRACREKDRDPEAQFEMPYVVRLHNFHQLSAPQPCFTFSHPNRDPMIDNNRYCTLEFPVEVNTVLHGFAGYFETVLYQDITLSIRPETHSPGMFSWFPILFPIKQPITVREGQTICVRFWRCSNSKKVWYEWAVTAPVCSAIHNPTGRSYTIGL
Sequence of PRMT5-MEP50 enzyme complex (Q9BQA1 2-342 partner): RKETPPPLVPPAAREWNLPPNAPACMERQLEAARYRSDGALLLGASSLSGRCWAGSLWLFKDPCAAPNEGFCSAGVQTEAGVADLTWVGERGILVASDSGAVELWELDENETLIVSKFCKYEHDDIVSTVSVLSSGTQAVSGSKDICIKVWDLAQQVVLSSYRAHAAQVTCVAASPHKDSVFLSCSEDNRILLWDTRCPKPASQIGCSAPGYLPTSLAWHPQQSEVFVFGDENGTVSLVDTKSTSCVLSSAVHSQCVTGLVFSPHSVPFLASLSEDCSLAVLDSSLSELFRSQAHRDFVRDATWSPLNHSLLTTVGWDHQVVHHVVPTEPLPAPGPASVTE

| Structure (SMILES) | IC50 [nM] |
| --- | --- |
| O=C1c2ccc(OC3CN(C(=O)C4CC4)C3)cc2OCCN1C[C@H](O)CN1CCc2ccccc2C1 [Example 85, 8-[1-(cyclopropanecarbonyl)azetidin-3-yl]oxy-4-[(2R)-3-(3,4-dihydro-1H-isoquinolin-2-yl)-2-hydroxy-propyl]-2,3-dihydro-1,4-benzoxazepin-5-one] | 1 to 100 |
| O=C(c1ccc2c(c1)OCCN(C[C@H](O)CN1CCc3ccccc3C1)C2=O)N1CCOC(F)(F)C1 [Example 195, 8-(2,2-difluoromorpholin-4-carbonyl)-4-[(2R)-3-(3,4-dihydro-1H-isoquinolin-2-yl)-2-hydroxy-propyl]-2,3-dihydro-1,4-benzoxazepin-5-one] | 100 to 1000 |
| O=C1c2ccc(OCc3ccncc3F)cc2OCCN1C[C@H](O)CN1CCc2ccccc2C1 [Example 62, 4-[(2R)-3-(3,4-dihydro-1H-isoquinolin-2-yl)-2-hydroxy-propyl]-8-[(3-fluoro-4-pyridyl)methoxy]-2,3-dihydro-1,4-benzoxazepin-5-one] | 1 to 100 |
| CN1CCC(Oc2cc(F)c3c(c2)OCCN(C[C@H](O)CN2CCc4ccccc4C2)C3=O)CC1 [Example 109, 4-[(2R)-3-(3,4-dihydro-1H-isoquinolin-2-yl)-2-hydroxy-propyl]-6-fluoro-8-[(1-methyl-4-piperidyl)oxy]-2,3-dihydro-1,4-benzoxazepin-5-one] | 100 to 1000 |
| O=C1c2ccc(CN3CCC(F)C3)cc2OCCN1C[C@H](O)CN1CCc2ccccc2C1 (stereo partly drawn) [Example 51, 4-[(2R)-3-(3,4-dihydro-1H-isoquinolin-2-yl)-2-hydroxy-propyl]-8-[(3-fluoropyrrolidin-1-yl)methyl]-2,3-dihydro-1,4-benzoxazepin-5-one] | 100 to 1000 |
| CC1COCC(C)N1C(=O)c1ccc2c(c1)OC(C)(C)CN(C[C@H](O)CN1CCc3ccccc3C1)C2=O (stereo partly drawn) [Example 205, 4-[(2R)-3-(3,4-dihydro-1H-isoquinolin-2-yl)-2-hydroxy-propyl]-8-(3,5-dimethylmorpholin-4-carbonyl)-2,2-dimethyl-3H-1,4-benzoxazepin-5-one] | 100 to 1000 |
| O=C(c1ccc2c(c1)OCCN(C[C@H](O)CN1CCc3ccccc3C1)C2=O)N1CCC(F)(F)CC1 [Example 196, 8-(4,4-difluoropiperidine-1-carbonyl)-4-[(2R)-3-(3,4-dihydro-1H-isoquinolin-2-yl)-2-hydroxy-propyl]-2,3-dihydro-1,4-benzoxazepin-5-one] | 100 to 1000 |
| Cn1cc(-c2ccc3c(c2)OCCN(C[C@H](O)CN2CCc4ccccc4C2)C3=O)cn1 [Example 232, 4-[(2R)-3-(3,4-dihydro-1H-isoquinolin-2-yl)-2-hydroxy-propyl]-8-(1-methylpyrazol-4-yl)-2,3-dihydro-1,4-benzoxazepin-5-one] | 100 to 1000 |
| N#CCN1CCC(Oc2ccc3c(c2)OCCN(C[C@H](O)CN2CCc4ccccc4C2)C3=O)CC1 [Example 159] | 100 to 1000 |
| O=C1c2ccc(CN3CCCCC3CO)cc2OCCN1C[C@H](O)CN1CCc2ccccc2C1 (stereo partly drawn) [Example 41, 4-[(2R)-3-(3,4-dihydro-1H-isoquinolin-2-yl)-2-hydroxy-propyl]-8-[[2-(hydroxymethyl)-1-piperidyl]methyl]-2,3-dihydro-1,4-benzoxazepin-5-one] | 100 to 1000 |
| O=C1c2ccc(OCc3ccnc(F)c3F)cc2OCCN1C[C@H](O)CN1CCc2ccccc2C1 [Example 60, 8-[(2,3-difluoro-4-pyridyl)methoxy]-4-[(2R)-3-(3,4-dihydro-1H-isoquinolin-2-yl)-2-hydroxy-propyl]-2,3-dihydro-1,4-benzoxazepin-5-one] | 100 to 1000 |
| CN1CCN(C[C@H](O)CN2CCc3ccccc3C2)C(=O)c2ccc(OCc3ccc(F)cn3)cc21 [Example 139, 4-[(2R)-3-(3,4-dihydro-1H-isoquinolin-2-yl)-2-hydroxy-propyl]-8-[(5-fluoro-2-pyridyl)methoxy]-1-methyl-2,3-dihydro-1,4-benzodiazepin-5-one] | 100 to 1000 |
| COCCN1CCC(Oc2ccc3c(c2)O[C@H](C)CN(C[C@H](O)CN2CCc4ccccc4C2)C3=O)CC1 [Example 224, (2R)-4-[(2R)-3-(3,4-dihydro-1H-isoquinolin-2-yl)-2-hydroxy-propyl]-8-[[1-(2-methoxyethyl)-4-piperidyl]oxy]-2-methyl-2,3-dihydro-1,4-benzoxazepin-5-one] | 100 to 1000 |
| CC(c1ccc2c(c1)OCCN(C[C@H](O)CN1CCc3ccccc3C1)C2=O)N1CC2(COC2)C1 (stereo partly drawn) [Example 222, 4-[(2R)-3-(3,4-dihydro-1H-isoquinolin-2-yl)-2-hydroxy-propyl]-8-[1-(2-oxa-6-azaspiro[3.3]heptan-6-yl)ethyl]-2,3-dihydro-1,4-benzoxazepin-5-one] | 100 to 1000 |
| C[C@@H]1CN(C[C@H](O)CN2CCc3ccccc3C2)C(=O)c2ccc(CN3CC4(COC4)C3)cc2O1 [Example 250, (2R)-4-[(2R)-3-(3,4-dihydro-1H-isoquinolin-2-yl)-2-hydroxypropyl]-2-methyl-8-(2-oxa-6-azaspiro[3.3]heptan-6-ylmethyl)-2,3-dihydro-1,4-benzoxazepin-5-one] | 100 to 1000 |
| COCCN1CCC(Oc2ccc3c(c2)OCCN(C[C@H](O)CN2CCc4ccccc4C2)C3=O)CC1 [Example 243] | 1 to 100 |
| CN1CCN(C[C@H](O)CN2CCc3ccccc3C2)C(=O)c2ccc(C3=CCC(C(F)(F)F)CC3)cc21 (stereo partly drawn) [Example 119, 4-[(2R)-3-(3,4-dihydro-1H-isoquinolin-2-yl)-2-hydroxy-propyl]-1-methyl-8-[4-(trifluoromethyl)cyclohexen-1-yl]-2,3-dihydro-1,4-benzodiazepin-5-one] | 100 to 1000 |
| O=C1c2ccc(C#Cc3cccnc3)cc2OCCN1C[C@H](O)CN1CCc2ccccc2C1 [Example 227, 4-[(2R)-3-(3,4-dihydro-1H-isoquinolin-2-yl)-2-hydroxy-propyl]-8-[2-(3-pyridyl)ethynyl]-2,3-dihydro-1,4-benzoxazepin-5-one] | 1 to 100 |
| CC1(C)CN(C[C@H](O)CN2CCc3ccccc3C2)C(=O)c2ccc(OC3CN(C=O)C3)cc2O1 [Example 168, 3-[[4-[(2R)-3-(3,4-dihydro-1H-isoquinolin-2-yl)-2-hydroxy-propyl]-2,2-dimethyl-5-oxo-3H-1,4-benzoxazepin-8-yl]oxy]azetidin-1-carbaldehyde] | 1 to 100 |
| COC(=O)N1CC(Oc2ccc3c(c2)OCCN(C[C@H](O)CN2CCc4ccccc4C2)C3=O)C1 [Example 86, methyl 3-[[4-[(2R)-3-(3,4-dihydro-1H-isoquinolin-2-yl)-2-hydroxy-propyl]-5-oxo-2,3-dihydro-1,4-benzoxazepin-8-yl]oxy]azetidin-1-carboxylate] | 100 to 1000 |
| C[C@@H]1CN(C[C@H](O)CN2CCc3ccccc3C2)C(=O)c2ccc(OC3CCN(CC(C)(C)O)CC3)cc2O1 [Example 220, (2R)-4-[(2R)-3-(3,4-dihydro-1H-isoquinolin-2-yl)-2-hydroxy-propyl]-8-[[1-(2-hydroxy-2-methyl-propyl)-4-piperidyl]oxy]-2-methyl-2,3-dihydro-1,4-benzoxazepin-5-one] | 100 to 1000 |
| C[C@@H]1CN(C[C@H](O)CN2CCc3ccccc3C2)C(=O)c2ccc(OC3CC4CCC(C3)N4CCO)cc2O1 (some centres unmarked) [Example 241] | 100 to 1000 |
| O=C1c2ccc(OC3CN(C(=O)C(F)F)C3)cc2OCCN1C[C@H](O)CN1CCc2ccccc2C1 [Example 161] | 1 to 100 |
| O=C1c2ccc(OCc3ccncc3)cc2OCCN1C[C@H](O)CN1CCc2ccccc2C1 [Example 57, 4-[(2R)-3-(3,4-dihydro-1H-isoquinolin-2-yl)-2-hydroxy-propyl]-8-(4-pyridylmethoxy)-2,3-dihydro-1,4-benzoxazepin-5-one] | 1 to 100 |
| C[C@@H]1CN(C[C@H](O)CN2CCc3ccccc3C2)C(=O)c2ccc(OC3CCN(C)CC3)cc2O1 [Example 143, (2R)-4-[(2R)-3-(3,4-dihydro-1H-isoquinolin-2-yl)-2-hydroxypropyl]-2-methyl-8-[(1-methyl-4-piperidyl)oxy]-2,3-dihydro-1,4-benzoxazepin-5-one] | 100 to 1000 |
| O=C(c1ccc2c(c1)OCCN(C[C@H](O)CN1CCc3ccccc3C1)C2=O)N1CC2CCCC2C1 (stereo partly drawn) [Example 193, 8-(3,3a,4,5,6,6a-hexahydro-1H-cyclopenta[c]pyrrol-2-carbonyl)-4-[(2R)-3-(3,4-dihydro-1H-isoquinolin-2-yl)-2-hydroxy-propyl]-2,3-dihydro-1,4-benzoxazepin-5-one] | 100 to 1000 |
